“And” between values parts separate entries of the source, which are not always exact repeats. Equal entries are not always repeated.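 These data come from cells grown in 96-well plates and exposed to compound for 48 hours at five concentrations. GI50 = concentration required for 50% inhibition of growth. TGI marks complete inhibition of growth.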

Consider 14 compounds from PubChem BioAssay (NCI).

Some test systems named below: HCC-2998 colon; HT29 colon; IGROV1 ovarian; KM12 colon; MOLT-4 leukemia; OVCAR-4 ovarian; SF-268 CNS; SK-MEL-2 melanoma; SNB-19 CNS.
Holding throughout (assay): NCI anticancer screen, dose series, 48 h

For the compound `Cc1cc(C)c([O-])c(-[n+]2c(-c3ccccc3)cc(-c3ccccc3)cc2-c2ccccc2)c1`, the TGI with HCC-2998 colon is 13.6 µM; in the experiment with HT29 colon, 12.2 µM; in the experiment on IGROV1 ovarian it was 19.9 µM; in the experiment with KM12 colon, 13.1 µM; in the experiment on MOLT-4 leukemia, more than 100 µM; with OVCAR-4 ovarian, 18.5 µM. Besides, the TGI was 21.5 µM in the experiment with SF-268 CNS, 10.2 µM with SK-MEL-2 melanoma and 21 µM in the experiment on SNB-19 CNS.
As to `CC(=O)NNc1nc(C)c(C(=O)/C=C/c2ccc(N(C)C)cc2)s1`, the TGI with HCC-2998 colon, with HT29 colon, with IGROV1 ovarian, with KM12 colon, in the experiment with MOLT-4 leukemia and in the experiment with SF-268 CNS was more than 100 µM in each case. In the experiment with SK-MEL-2 melanoma, this compound registered a TGI of more than 100 µM.
Regarding `O=C1CC[C@@H](S(=O)(=O)c2ccccc2)[C@H](/C=C/c2ccccc2)O1`, the TGI in the experiment with HCC-2998 colon, in the experiment with HT29 colon, with IGROV1 ovarian, with KM12 colon, in the experiment on MOLT-4 leukemia and with OVCAR-4 ovarian was more than 100 µM throughout. The TGI with SNB-19 CNS is more than 100 µM.
As to `CCP(C)(=O)CC`, the TGI with HCC-2998 colon, with HT29 colon, with IGROV1 ovarian, in the experiment with KM12 colon, in the experiment on MOLT-4 leukemia and in the experiment with OVCAR-4 ovarian was more than 100 µM each time. In addition, the TGI in the experiment with SF-268 CNS, with SK-MEL-2 melanoma and in the experiment with SNB-19 CNS was more than 100 µM each time.
With `CC(=O)[CH-]C(=O)c1ccccc1.CC(=O)[CH-]C(=O)c1ccccc1.CC(=O)[CH-]C(=O)c1ccccc1.[Cl-].[Hf+4]`, the GI50 is 19.1 µM with HT29 colon; 47 µM with IGROV1 ovarian; 36.1 µM with KM12 colon; 15.4 µM with MOLT-4 leukemia; 86.5 µM with OVCAR-4 ovarian; 23.7 µM with SF-268 CNS. Further, the GI50 with SK-MEL-2 melanoma was 18.1 µM. Besides, the TGI with HT29 colon, with IGROV1 ovarian, in the experiment on KM12 colon, with MOLT-4 leukemia, with OVCAR-4 ovarian and in the experiment with SF-268 CNS was more than 100 µM each time. This compound returned a TGI with SK-MEL-2 melanoma of 53.2 µM.
With `NC(N)=NCCCC(Nc1c2ccccc2nc2ccccc12)C(=O)O` (stereo unspecified), the TGI in the experiment with HCC-2998 colon is more than 100 µM; in the experiment with HT29 colon it was more than 100 µM; in the experiment with KM12 colon, more than 100 µM; in the experiment on MOLT-4 leukemia, more than 100 µM; with OVCAR-4 ovarian, 43.4 µM; in the experiment with SF-268 CNS, more than 100 µM. In the experiment on SK-MEL-2 melanoma, this compound had a TGI of more than 100 µM.
For `O=C1NC(c2cccc3ccccc23)Nc2ccc(Cl)cc21` (stereo unspecified), the TGI is 0.285 µM and 0.0607 µM in the experiment with HCC-2998 colon; 0.105 µM in the experiment on HT29 colon; 32.9 µM in the experiment with IGROV1 ovarian; 0.803 µM in the experiment on KM12 colon; 0.00987 µM in the experiment on MOLT-4 leukemia; 23.3 µM in the experiment with SF-268 CNS. Also, the TGI in the experiment with SNB-19 CNS was more than 100 µM.
For `CCN1CCCCCCCCCC(=N/O)/C(=N\O)C1`, the TGI in the experiment with HT29 colon, with IGROV1 ovarian, in the experiment with KM12 colon, with MOLT-4 leukemia, with SF-268 CNS and in the experiment on SNB-19 CNS was more than 100 µM each time.
As to `COc1ccc(C(=O)C(c2ccc(OC)cc2)C2(O)C(=O)Nc3c(Cl)cc(Cl)cc32)cc1` (stereo unspecified), the TGI in the experiment with HT29 colon was 42.4 µM; in the experiment with KM12 colon, 36.9 µM; with MOLT-4 leukemia it was 36.2 µM; in the experiment on OVCAR-4 ovarian, 20.1 µM; in the experiment with SF-268 CNS, more than 100 µM; in the experiment on SK-MEL-2 melanoma, 31.5 µM. The TGI in the experiment with SNB-19 CNS was 56 µM.
Consider `C=C1C2CCCC1C1(S(C)(=O)=O)CCCCC21O` (stereo unspecified), for which the TGI in the experiment with HCC-2998 colon, in the experiment with HT29 colon, in the experiment on IGROV1 ovarian, in the experiment with KM12 colon, in the experiment with MOLT-4 leukemia and in the experiment on OVCAR-4 ovarian was more than 100 µM throughout. Further, the TGI in the experiment with SK-MEL-2 melanoma and in the experiment with SNB-19 CNS was more than 100 µM in each case.
Consider `Cc1c(C(=O)/C=C/c2ccc([N+](=O)[O-])cc2)[n+](=O)c2ccccc2n1[O-]`, for which the TGI was more than 100 µM with HCC-2998 colon; more than 100 µM in the experiment on HT29 colon; more than 100 µM with IGROV1 ovarian; more than 100 µM in the experiment on KM12 colon; 82.2 µM with MOLT-4 leukemia; more than 100 µM with OVCAR-4 ovarian. In addition, the TGI with SF-268 CNS and in the experiment on SNB-19 CNS was more than 100 µM throughout.
As for `CS(=O)(=O)ON1C(=O)c2ccc(N)cc2C1=O`, the TGI with HCC-2998 colon was more than 100 µM; in the experiment on HT29 colon it was more than 100 µM; in the experiment on IGROV1 ovarian it was more than 100 µM; with KM12 colon, more than 100 µM; in the experiment on MOLT-4 leukemia, more than 69.3 µM; in the experiment with OVCAR-4 ovarian it was more than 100 µM. Moreover, the values for the TGI with SF-268 CNS, in the experiment on SK-MEL-2 melanoma and with SNB-19 CNS were more than 95.7 µM, more than 100 µM and more than 100 µM, respectively.
In the case of `COC1(OC)CCC2(C)OC(c3ccccc3)C1O2` (stereo unspecified), the TGI with HCC-2998 colon, in the experiment on HT29 colon, with IGROV1 ovarian, with KM12 colon, with MOLT-4 leukemia and with OVCAR-4 ovarian was more than 100 µM each time. In addition, the TGI in the experiment on SF-268 CNS, in the experiment with SK-MEL-2 melanoma and in the experiment on SNB-19 CNS was more than 100 µM throughout.
On to `O=C(CC(=O)N1N=C(n2ccc3ccccc32)CC1c1ccccc1)Nc1ccccc1Cl` (stereo unspecified), for which the TGI with HCC-2998 colon, in the experiment with HT29 colon, in the experiment with IGROV1 ovarian, in the experiment with KM12 colon, in the experiment on MOLT-4 leukemia and with OVCAR-4 ovarian was more than 100 µM each time. The TGI with SF-268 CNS, with SK-MEL-2 melanoma and with SNB-19 CNS was more than 100 µM each time.
